Data reported in patent publication US9023847B2, “Azaheterocyclic compounds” (Merck Patent GmbH, priority 2009, dated 2015).

Target: T1, P70S6K (T412E mutant, Millipore) (Homo sapiens, UniProt P23443, T412E)
T1 construct: purchased Millipore
Assay: p70S6K enzyme assay
Format: biochemical
Conditions: Table 1; 3 nM P70S6K, 24 μM ATP, 90 min at 25° C.; read-out: p70S6K inhibition (IC50)
Description: P70S6K inhibitor compounds are diluted and plated in 96 well plates. A reaction mixture including the following components is then added to the compound plate to initiate the enzyme reaction; P70S6K (3 nM, T412E mutant, Millipore) is mixed with 24 μM ATP in an assay buffer containing 100 mM Hepes (pH 7.5), 5 mM MgCl2, 1 mM DTT, 0.015% Brij and 1 μM of the substrate peptide FITC-AHA-AKRRRLSSLRA-OH (derived from the S6 ribosomal protein sequence, FITC=fluorescein isothiocyanate, AHA=6-aminohexanoic acid). The reaction is incubated for 90 min at 25° C., before the addition of 10 mM EDTA to stop the reaction. The proportion of substrate and product (phosphorylated) peptide is analysed on a Caliper Life Sciences Lab Chip 3000, using a pressure of −1.4 psi, and upstream and downstream voltages of −3000 and −700 respectively. Product peaks are resolved before substrate peaks on the resulting chromatograms.

T1 sequence (P23443 whole entry T412E): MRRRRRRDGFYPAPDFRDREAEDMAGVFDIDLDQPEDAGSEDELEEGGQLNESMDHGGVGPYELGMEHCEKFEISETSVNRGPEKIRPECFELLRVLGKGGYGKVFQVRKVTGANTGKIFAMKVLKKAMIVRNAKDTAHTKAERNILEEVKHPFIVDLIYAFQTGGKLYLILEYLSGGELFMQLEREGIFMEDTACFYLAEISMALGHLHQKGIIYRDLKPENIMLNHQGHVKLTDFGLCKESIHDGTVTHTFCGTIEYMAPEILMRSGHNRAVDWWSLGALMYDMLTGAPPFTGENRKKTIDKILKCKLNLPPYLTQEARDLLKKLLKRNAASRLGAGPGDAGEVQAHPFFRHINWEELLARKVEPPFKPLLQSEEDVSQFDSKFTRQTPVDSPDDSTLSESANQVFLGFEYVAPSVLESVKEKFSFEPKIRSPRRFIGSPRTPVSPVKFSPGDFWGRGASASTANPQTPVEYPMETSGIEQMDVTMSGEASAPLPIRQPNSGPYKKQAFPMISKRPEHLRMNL

| IC50 | SMILES |
| --- | --- |
| < 100 nM | O=C(NCCc1cccc(Cl)c1)c1sccc1Nc1ncnc2[nH]ccc12 [Example 144, 3-(7H-Pyrrolo[2,3-d]pyrimidin-4-ylamino)-thiophene-2-carboxylic acid [2-(3-chloro-phenyl)-ethyl]-amide] |

Same assay, conditions: class symbol; 3 nM P70S6K, 24 μM ATP; read-out: IC50 (p70S6K)

| IC50 | SMILES |
| --- | --- |
| < 100 nM | O=C(Nc1cccc(CNC(=O)c2sccc2Nc2ccnc3[nH]ccc23)c1)c1ccnc(N2CCCC2)c1 [Example 161, 2-Pyrrolidin-1-yl-N-[3-({[3-(1H-pyrrolo[2,3-b]pyridin-4-ylamino)-thiophene-2-carbonyl]-amino}-methyl)-phenyl]-isonicotinamide] |
| 100 to 1000 nM | CC(C)(C)OC(=O)N1CCCC(NC(=O)c2sccc2Nc2ccnc3[nH]ccc23)C1 (stereo not drawn) [Example 91, 3-{[3-(1H-Pyrrolo[2,3-b]pyridin-4-ylamino)-thiophene-2-carbonyl]-amino}-piperidine-1-carboxylic acid tert-butyl ester] |
| 100 to 1000 nM | O=C(NCCOc1ccccc1)c1sccc1Nc1ccnc2[nH]ccc12 [Example 12, 3-(1H-Pyrrolo[2,3-b]pyridin-4-ylamino)-thiophene-2-carboxylic acid (2-phenoxy-ethyl)-amide] |
| < 100 nM | O=C(NCCNCc1ccsc1)c1sccc1Nc1ccnc2[nH]ccc12 [Example 46, 3-(1H-Pyrrolo[2,3-b]pyridin-4-ylamino)-thiophene-2-carboxylic acid {2-[(thiophen-3-ylmethyl)-amino]-ethyl}-amide] |
| 1000 to 10000 nM | Cc1cc(Nc2ccnc3[nH]ccc23)c(C(=O)NCCNCc2ccccc2)s1 [Example 79, 5-Methyl-3-(1H-pyrrolo[2,3-b]pyridin-4-ylamino)-thiophene-2-carboxylic acid (2-benzylamino-ethyl)-amide] |
| < 100 nM | O=C(NCc1cccc(Cl)c1)c1occc1Nc1ncnc2[nH]ccc12 [Example 176, 3-(7H-Pyrrolo[2,3-d]pyrimidin-4-ylamino)-furan-2-carboxylic acid 3-chloro-benzylamide] |
| < 100 nM | O=C(NC1CCNC1)c1sccc1Nc1ccnc2[nH]ccc12 (stereo not drawn) [Example 6, 3-(1H-Pyrrolo[2,3-b]pyridin-4-ylamino)-thiophene-2-carboxylic acid pyrrolidin-3-ylamide] |
| < 100 nM | O=C(NC1CCNC1)c1ccsc1Nc1ccnc2[nH]ccc12 (stereo not drawn) [Example 103, 2-(1H-Pyrrolo[2,3-b]pyridin-4-ylamino)-thiophene-3-carboxylic acid pyrrolidin-3-ylamide] |
| < 100 nM | O=C(NCCNCc1ccccn1)c1sccc1Nc1ccnc2[nH]ccc12 [Example 41, 3-(1H-Pyrrolo[2,3-b]pyridin-4-ylamino)-thiophene-2-carboxylic acid {2-[(pyridin-2-ylmethyl)-amino]-ethyl}-amide] |
| < 100 nM | COc1cccc(CCNC(=O)c2sccc2Nc2ccnc3[nH]ccc23)c1 [Example 26, 3-(1H-Pyrrolo[2,3-b]pyridin-4-ylamino)-thiophene-2-carboxylic acid [2-(3-methoxy-phenyl)-ethyl]-amide] |
| < 100 nM | NC(CNC(=O)c1sccc1Nc1ccnc2[nH]ccc12)c1ccccc1 (stereo not drawn) [Example 78, 3-(1H-Pyrrolo[2,3-b]pyridin-4-ylamino)-thiophene-2-carboxylic acid (2-amino-2-phenyl-ethyl)-amide] |
| < 100 nM | O=C(NCc1ccccc1)c1ccsc1Nc1ccnc2[nH]ccc12 [Example 112, 2-(1H-Pyrrolo[2,3-b]pyridin-4-ylamino)-thiophene-3-carboxylic acid benzylamide] |
| 100 to 1000 nM | O=C(NCCN1CCOCC1)c1sccc1Nc1ccnc2[nH]ccc12 [Example 16, 3-(1H-Pyrrolo[2,3-b]pyridin-4-ylamino)-thiophene-2-carboxylic acid (2-morpholin-4-yl-ethyl)-amide] |
| < 100 nM | NCC(NC(=O)c1ccsc1Nc1ccnc2[nH]ccc12)c1ccc(C(F)(F)F)cc1 (stereo not drawn) [Example 133, 2-(1H-Pyrrolo[2,3-b]pyridin-4-ylamino)-thiophene-3-carboxylic acid [2-amino-1-(4-trifluoromethyl-phenyl)-ethyl]-amide] |
